Literature values, collected in patent publication US20230081296A1, “STABLE NON-AQUEOUS COMPOSITIONS OF PLANTS EXTRACTS AND METHODS OF MAKING THE SAME” (Nulixir Inc., priority 2021, published 2023).

Conditions: reference phases water and n-octanol; categorization assumed at pH = 7 unless stated otherwise

For `COc1cc2c(c(OC)c1OC)-c1c(cc3c(c1OC)OCO3)CC(C)C(C)C2` (single isomer, unassigned; (-)) [(-)-schisandrin B], which logP is on record?
The logP was about 4.

For `COc1cc(/C=C/c2ccccc2)oc(=O)c1` [5,6-dehydrokawain], which logP is on record?
Its logP is about 2.9.

For `COC1=CC(=O)OC(/C=C/c2ccc(OC)cc2)C1` (centres unmarked) [5,6-dihydroyangonin], which logP is on record?
Its logP is about 2.5.

For `CC1=C(CO)C(=O)O[C@@H]([C@@H](C)[C@H]2CC[C@H]3[C@@H]4C[C@H](Cl)[C@]5(O)[C@@H](O)C=CC(=O)[C@]5(C)[C@H]4CC[C@]23C)C1` [6a-chloro-5b-hydroxywithaferin A], which logP is on record?
Its logP is about 3.2.

For `COC1=CC(=O)O[C@@H](CCc2ccc3c(c2)OCO3)C1` [7,8-dihydromethysticin], which logP is on record?
The logP was about 2.2.

For `COc1ccc(CCc2cc(OC)cc(=O)o2)cc1` [7,8-dihydroyangonin], which logP is on record?
The logP was about 2.9.

Which logP does the source give for `COc1cc(/C=C\c2ccc(OC)c(O)c2)oc(=O)c1` [11-hydroxyyangonin] here?
Its logP is about 2.2.

With `COc1cc2c(c(OC)c1OC)-c1c(cc(OC)c(OC)c1OC)C[C@](C)(O)[C@@H](C)C2` [(+)-schisandrin] as the compound, how does the logP read?
Its logP is about 5.

Which logP does the source give for `COc1cc2c(c(OC)c1OC)-c1c(cc(OC)c(OC)c1OC)C[C@H](C)[C@H](C)C2` [(-)-schisandrin A] here?
Its logP is about 3.6.

Which logP does the source give for `CC(/C=C/C=C(\C)C(=O)O[C@@H]1O[C@H](CO[C@@H]2O[C@H](CO)[C@@H](O)[C@H](O)[C@H]2O)[C@@H](O)[C@H](O)[C@H]1O)=C\C=C\C=C(C)\C=C\C=C(/C)C(=O)O[C@@H]1O[C@H](CO[C@@H]2O[C@H](CO)[C@@H](O)[C@H](O)[C@H]2O)[C@@H](O)[C@H](O)[C@H]1O` [alpha -crocin] here?
The logP was about -1.5.

With `COc1ccc([C@@]23CCC(=O)C[C@@H]2N(C)CC3)cc1OC` [mesembrine] as the compound, how does the logP read?
The logP was about 1.5.

With `COc1nc2c(c(=O)n1C)n(C)c(=O)n2C` [methylliberine] as the compound, how does the logP read?
Its logP is about -0.083.

With `CC(=O)OC1C=CC(=O)N(C(=O)CCc2ccccc2)C1` (centres unmarked) [pipermethystine] as the compound, how does the logP read?
Its logP is about 1.8.

Which logP does the source give for `COc1cc([C@H]2Oc3cc(O)c4c(=O)c(O)c(-c5ccc(O)cc5)oc4c3O[C@@H]2CO)ccc1O` [rhodiolin] here?
The logP was about 2.

With `COc1cc2c(c(OC)c1OC)-c1c(cc(OC)c(OC)c1OC)C[C@](C)(O)[C@@H](C)C2` [schisandrol A] as the compound, how does the logP read?
Its logP is about 3.4.

Which logP does the source give for `N#C[C@@]1(O[C@@H]2O[C@H](CO)[C@@H](O)[C@H](O)[C@H]2O)C=C[C@@H](O)C1` [tetraphyllin B] here?
Its logP is about -2.5.

With (-)-schisandrin C as the compound, how does the logP read?
Its logP is about 3.5.

For (R)-kawain, which logP is on record?
Its logP is about 2.7.

With bacopaside B as the compound, how does the logP read?
The logP was about 2.8.

For hericerin, which logP is on record?
The logP was about 6.4.

For herinacine A, which logP is on record?
The logP was about 2.5.

With schisandroside C as the compound, how does the logP read?
Its logP is about 1.6.

For tortuosomine, which logP is on record?
The logP was about 3.
